Reference: ChEMBL document CHEMBL1201862, “PubChem BioAssay data set” (2004)
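In this assay, cells in 96-well plates receive the compound at five concentrations for 48 hours. Endpoints are linearly interpolated between the surrounding concentrations. At the GI50, growth is halved.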 The source made the active and inactive calls. Rule as the data show it: active = GI50 up to about 1.1 µM and inactive = higher.

How the values were obtained:
Experiment in all cases: growth of human tumour cells (NCI), 48 h
[1] = system: 786-0
[2] = system: A498
[3] = system: A549
[4] = system: ACHN
[5] = system: CAKI-1
[6] = system: CCRF-CEM
[7] = system: COLO 205
[8] = system: DLD-1
[9] = system: DMS-273
[10] = system: EKVX
[11] = system: HCC 2998
[12] = system: HCT-116
[13] = system: HCT-15
[14] = system: HL-60
[15] = system: HOP-18
[16] = system: HOP-62
[17] = system: HOP-92
[18] = system: HT-29
[19] = system: IGROV-1
[20] = system: K562
[21] = system: KM-20L2
[22] = system: KM12
[23] = system: LOX IMVI
[24] = system: LXFL 529
[25] = system: M14
[26] = system: M19-MEL
[27] = system: MOLT-4
[28] = system: Malme-3M
[29] = system: NCI-H226
[30] = system: NCI-H23
[31] = system: NCI-H460
[32] = system: NCI-H522
[33] = system: OVCAR-3
[34] = system: OVCAR-4
[35] = system: OVCAR-5
[36] = system: OVCAR-8
[37] = system: RPMI-8226
[38] = system: RXF 393
[39] = system: SF-268
[40] = system: SF-295
[41] = system: SF-539
[42] = system: SK-MEL-28
[43] = system: SK-MEL-2
[44] = system: SK-MEL-5
[45] = system: SK-OV-3
[46] = system: SN12C
[47] = system: SNB-19
[48] = system: SNB-75
[49] = system: SNB-78
[50] = system: SR
[51] = system: SW-620
[52] = system: TK-10
[53] = system: U-251
[54] = system: UACC-257
[55] = system: UACC-62
[56] = system: UO-31
[57] = system: DMS-114

O=C(/C=C/c1ccccc1Cl)c1ccc(Cl)c(Cl)c1
GI50 [1]: 16.3 µM (inactive) | GI50 [2]: 15.9 µM (inactive) | GI50 [3]: 19.5 µM (inactive) | GI50 [4]: 15.3 µM (inactive) | GI50 [5]: 15.4 µM (inactive) | GI50 [6]: 26.4 µM (inactive) | GI50 [7]: > 100 µM (inactive) | GI50 [8]: 15.8 µM (inactive) | GI50 [9]: 19.9 µM (inactive) | GI50 [10]: 14.5 µM (inactive) | GI50 [11]: 15.5 µM (inactive) | GI50 [12]: 11.5 µM (inactive) | GI50 [13]: 15.7 µM | GI50 [14]: 25.8 µM (inactive) | GI50 [15]: 14.8 µM (inactive) | GI50 [16]: 23 µM (inactive) | GI50 [17]: 26.9 µM (inactive) | GI50 [18]: 19.8 µM (inactive) | GI50 [19]: 12.4 µM (inactive) | GI50 [20]: 26.8 µM (inactive) | GI50 [21]: 17.3 µM (inactive) | GI50 [22]: 15.8 µM (inactive) | GI50 [23]: 14.6 µM (inactive) | GI50 [24]: 16.1 µM (inactive) | GI50 [25]: 17.5 µM (inactive) | GI50 [26]: 16.3 µM (inactive) | GI50 [27]: 21.3 µM (inactive) | GI50 [28]: 22.8 µM (inactive) | GI50 [29]: > 100 µM (inactive) | GI50 [30]: 20 µM (inactive) | GI50 [31]: 34.5 µM (inactive) | GI50 [32]: 17.3 µM (inactive) | GI50 [33]: 15.4 µM (inactive) | GI50 [34]: 12.9 µM (inactive) | GI50 [35]: 17.6 µM (inactive) | GI50 [36]: 17.7 µM (inactive) | GI50 [37]: 37.7 µM (inactive) | GI50 [38]: 13.1 µM (inactive) | GI50 [39]: 18.3 µM (inactive) | GI50 [40]: 17.3 µM (inactive) | GI50 [41]: 18.2 µM (inactive) | GI50 [42]: 20.2 µM (inactive) | GI50 [43]: 18 µM (inactive) | GI50 [44]: 18.9 µM (inactive) | GI50 [45]: 24.5 µM (inactive) | GI50 [46]: > 100 µM (inactive) | GI50 [47]: 16.4 µM (inactive) | GI50 [48]: 13 µM (inactive) | GI50 [49]: 16.2 µM (inactive) | GI50 [50]: 21.7 µM (inactive) | GI50 [51]: 15.1 µM (inactive) | GI50 [52]: 18.5 µM (inactive) | GI50 [53]: 17.3 µM (inactive) | GI50 [54]: 19.7 µM (inactive) | GI50 [55]: 19.1 µM (inactive) | GI50 [56]: 17.1 µM (inactive)

COc1ccc(C(C#N)NNC(=O)c2ccccc2O)cc1OC (centres undefined)
GI50 [1]: 1.24 µM (inactive) | GI50 [3]: 0.377 µM (active) | GI50 [4]: 0.384 µM (active) | GI50 [5]: 0.394 µM (active) | GI50 [6]: 1.21 µM (inactive) | GI50 [7]: 35.6 µM (inactive) | GI50 [8]: 0.9 µM (active) | GI50 [57]: 0.573 µM (active) | GI50 [9]: 0.364 µM (active) | GI50 [12]: 0.401 µM (active) | GI50 [13]: 0.893 µM | GI50 [14]: 1.76 µM (inactive) | GI50 [15]: 10 µM (inactive) | GI50 [16]: 13.2 µM (inactive) | GI50 [18]: 30.1 µM (inactive) | GI50 [19]: 0.547 µM (active) | GI50 [20]: 0.356 µM (active) | GI50 [21]: 22 µM (inactive) | GI50 [22]: 0.807 µM (active) | GI50 [23]: 0.735 µM (active) | GI50 [24]: 0.526 µM (active) | GI50 [25]: 0.75 µM (active) | GI50 [26]: 6.92 µM (inactive) | GI50 [27]: 3.04 µM (inactive) | GI50 [28]: 11.7 µM (inactive) | GI50 [29]: 1.96 µM (inactive) | GI50 [30]: 0.746 µM (active) | GI50 [31]: 0.478 µM (active) | GI50 [32]: 3.28 µM (inactive) | GI50 [33]: 2.55 µM (inactive) | GI50 [34]: 1.7 µM (inactive) | GI50 [35]: 15.1 µM (inactive) | GI50 [36]: 1.46 µM (inactive) | GI50 [37]: 4.24 µM (inactive) | GI50 [38]: 0.902 µM (active) | GI50 [39]: 0.468 µM (active) | GI50 [40]: 1.24 µM (inactive) | GI50 [41]: 0.705 µM (active) | GI50 [42]: 28.6 µM (inactive) | GI50 [43]: 0.667 µM (active) | GI50 [44]: 8.95 µM (inactive) | GI50 [45]: 0.889 µM (active) | GI50 [46]: 0.767 µM (active) | GI50 [48]: 0.331 µM (active) | GI50 [49]: 0.685 µM (active) | GI50 [50]: 0.463 µM (active) | GI50 [51]: 4.56 µM (inactive) | GI50 [52]: 14.6 µM (inactive) | GI50 [53]: 0.45 µM (active) | GI50 [54]: 3.84 µM (inactive) | GI50 [55]: 0.31 µM (active) | GI50 [56]: 0.379 µM (active)

COc1ccc2nc(-c3ccc(O)cc3)ccc2c1
GI50 [1]: > 100 µM (inactive) | GI50 [3]: > 100 µM (inactive) | GI50 [4]: > 100 µM (inactive) | GI50 [6]: 2.16 µM (inactive) | GI50 [7]: > 100 µM (inactive) | GI50 [8]: > 100 µM (inactive) | GI50 [57]: > 100 µM (inactive) | GI50 [10]: 95.5 µM (inactive) | GI50 [11]: 10.4 µM (inactive) | GI50 [12]: > 100 µM (inactive) | GI50 [14]: > 100 µM (inactive) | GI50 [15]: > 100 µM (inactive) | GI50 [16]: > 100 µM (inactive) | GI50 [17]: > 100 µM (inactive) | GI50 [18]: > 100 µM (inactive) | GI50 [19]: > 100 µM (inactive) | GI50 [20]: > 100 µM (inactive) | GI50 [21]: > 100 µM (inactive) | GI50 [22]: > 100 µM (inactive) | GI50 [23]: > 100 µM (inactive) | GI50 [24]: > 100 µM (inactive) | GI50 [25]: > 100 µM (inactive) | GI50 [26]: > 100 µM (inactive) | GI50 [27]: > 100 µM (inactive) | GI50 [28]: > 100 µM (inactive) | GI50 [29]: > 100 µM (inactive) | GI50 [30]: > 100 µM (inactive) | GI50 [31]: > 100 µM (inactive) | GI50 [32]: > 100 µM (inactive) | GI50 [33]: > 100 µM (inactive) | GI50 [34]: > 100 µM (inactive) | GI50 [35]: > 100 µM (inactive) | GI50 [36]: > 100 µM (inactive) | GI50 [37]: > 100 µM (inactive) | GI50 [38]: > 100 µM (inactive) | GI50 [39]: 1.22 µM (inactive) | GI50 [40]: > 100 µM (inactive) | GI50 [41]: > 100 µM (inactive) | GI50 [42]: > 100 µM (inactive) | GI50 [44]: > 100 µM (inactive) | GI50 [45]: > 100 µM (inactive) | GI50 [46]: > 100 µM (inactive) | GI50 [47]: > 100 µM (inactive) | GI50 [48]: 59.7 µM (inactive) | GI50 [49]: 97.1 µM (inactive) | GI50 [50]: > 100 µM (inactive) | GI50 [51]: > 100 µM (inactive) | GI50 [52]: > 100 µM (inactive) | GI50 [54]: > 100 µM (inactive) | GI50 [55]: > 100 µM (inactive) | GI50 [56]: > 100 µM (inactive)
